# Source: patent US12371428B2 (Exelixis, Inc., priority 2019, dated 2025)
# How the values were obtained:
# [1] = molecular target: Human KDR (residues 790-1356) (Homo sapiens (Human), UniProt P35968); assay: Human KDR kinase assay, HTRF KinEase (Example B-2); type: biochemical; conditions: protocol of Example B-2 (other compounds)
# Procedure, shortened: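 Ten compound concentrations (3% DMSO final) were pre-plated, then KDR (790-1356) with biotinylated peptide in Mg/Mn/DTT buffer was added; ATP at Km (4.0 μM) started a 40 min room-temperature reaction. Detection used Eu-TK antibody and SA-XL665 in EDTA buffer; activity normalized to DMSO and reference inhibitor, IC50 by logistic fit.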
# [2] = molecular target: Human MER (residues 528-999) (Homo sapiens (Human), UniProt Q12866); assay: Human Mer kinase assay, HTRF KinEase (Example C-2); type: biochemical; conditions: protocol of Example C-2 (other compounds)
# Procedure, shortened: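 HTRF KinEase TK assay with MER 528-999 (1 ng/well) in enzymatic buffer plus 5 mM MgCl2 and 1 mM DTT, biotinylated peptide substrate and ATP at Km (40 μM), 3% DMSO final, 60 min at room temperature. Stopped with EDTA detection mix (SA-XL665, TK antibody-Eu3+), read at 665/620 nm after 60 min; IC50 from 10-point 4-parameter fit, normalized to DMSO and 1 μM reference.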
# [3] = molecular target: Human MET (residues 956-1390) (Homo sapiens (Human), UniProt P08581); assay: Human Met kinase assay, HTRF KinEase (Example D-2); type: biochemical; conditions: protocol of Example D-2 (other compounds); read-out: c-Met IC50
# Procedure, shortened: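 HTRF KinEase assay on MET residues 956-1390 (0.1 ng/well) in buffer with 5 mM MgCl2, 1 mM DTT and 1 mM MnCl2, with biotinylated peptide substrate, ATP at Km, 10 compound concentrations and 3% DMSO final, run 40 min at room temperature. The […] signal was normalized to DMSO and to 1 μM reference compound, and IC50 came from a 4-parameter logistic fit.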
# [4] = molecular target: Met (phospho-Met, HGF-stimulated PC-3 prostate cancer cells) (Homo sapiens (Human), UniProt P08581); assay: Met autophosphorylation ELISA in PC-3 cells (Example F); type: cell-based; conditions: cellular activity; Met autophosphorylation ELISA in PC-3 cells; read-out: c-Met IC50
# Procedure, shortened: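 Compounds were tested on HGF-stimulated PC-3 cells. After 24 h culture and 3 h serum starvation, cells got compound for 1 h and 100 ng/mL HGF for 10 min, and Met tyrosine phosphorylation was measured by ELISA.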
# [5] = molecular target: KDR (phospho-KDR, VEGF165-stimulated HUVEC cells) (Homo sapiens (Human), UniProt P35968); assay: KDR autophosphorylation ELISA in HUVEC cells (Example G); type: cell-based; conditions: cellular activity; KDR autophosphorylation ELISA in HUVEC cells
# Procedure, shortened: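 First, endothelial cells were cultured a day, then kept without serum for another day. Next came 1 h with serially diluted compound, a brief 5 min VEGF165 stimulus (100 ng/mL), rapid lysis, and ELISA detection of receptor phosphorylation relative to stimulated and non-stimulated controls.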
# Chain of Human MER (residues 528-999) (Q12866 528-999): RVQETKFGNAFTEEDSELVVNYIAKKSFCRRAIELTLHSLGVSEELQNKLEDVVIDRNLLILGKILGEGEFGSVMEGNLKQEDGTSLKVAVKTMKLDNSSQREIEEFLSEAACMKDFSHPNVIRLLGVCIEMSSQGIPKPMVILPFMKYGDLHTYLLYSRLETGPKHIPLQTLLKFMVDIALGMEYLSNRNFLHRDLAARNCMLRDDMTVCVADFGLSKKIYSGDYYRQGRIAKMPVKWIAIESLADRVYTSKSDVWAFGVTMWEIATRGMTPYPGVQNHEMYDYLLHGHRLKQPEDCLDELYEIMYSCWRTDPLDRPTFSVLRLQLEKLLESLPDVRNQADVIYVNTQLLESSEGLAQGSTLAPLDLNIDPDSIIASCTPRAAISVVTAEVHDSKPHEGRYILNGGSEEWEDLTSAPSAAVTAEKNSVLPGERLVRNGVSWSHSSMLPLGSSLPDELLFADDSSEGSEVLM
# Chain of KDR (phospho-KDR, VEGF165-stimulated HUVEC cells) (P35968 20-1356): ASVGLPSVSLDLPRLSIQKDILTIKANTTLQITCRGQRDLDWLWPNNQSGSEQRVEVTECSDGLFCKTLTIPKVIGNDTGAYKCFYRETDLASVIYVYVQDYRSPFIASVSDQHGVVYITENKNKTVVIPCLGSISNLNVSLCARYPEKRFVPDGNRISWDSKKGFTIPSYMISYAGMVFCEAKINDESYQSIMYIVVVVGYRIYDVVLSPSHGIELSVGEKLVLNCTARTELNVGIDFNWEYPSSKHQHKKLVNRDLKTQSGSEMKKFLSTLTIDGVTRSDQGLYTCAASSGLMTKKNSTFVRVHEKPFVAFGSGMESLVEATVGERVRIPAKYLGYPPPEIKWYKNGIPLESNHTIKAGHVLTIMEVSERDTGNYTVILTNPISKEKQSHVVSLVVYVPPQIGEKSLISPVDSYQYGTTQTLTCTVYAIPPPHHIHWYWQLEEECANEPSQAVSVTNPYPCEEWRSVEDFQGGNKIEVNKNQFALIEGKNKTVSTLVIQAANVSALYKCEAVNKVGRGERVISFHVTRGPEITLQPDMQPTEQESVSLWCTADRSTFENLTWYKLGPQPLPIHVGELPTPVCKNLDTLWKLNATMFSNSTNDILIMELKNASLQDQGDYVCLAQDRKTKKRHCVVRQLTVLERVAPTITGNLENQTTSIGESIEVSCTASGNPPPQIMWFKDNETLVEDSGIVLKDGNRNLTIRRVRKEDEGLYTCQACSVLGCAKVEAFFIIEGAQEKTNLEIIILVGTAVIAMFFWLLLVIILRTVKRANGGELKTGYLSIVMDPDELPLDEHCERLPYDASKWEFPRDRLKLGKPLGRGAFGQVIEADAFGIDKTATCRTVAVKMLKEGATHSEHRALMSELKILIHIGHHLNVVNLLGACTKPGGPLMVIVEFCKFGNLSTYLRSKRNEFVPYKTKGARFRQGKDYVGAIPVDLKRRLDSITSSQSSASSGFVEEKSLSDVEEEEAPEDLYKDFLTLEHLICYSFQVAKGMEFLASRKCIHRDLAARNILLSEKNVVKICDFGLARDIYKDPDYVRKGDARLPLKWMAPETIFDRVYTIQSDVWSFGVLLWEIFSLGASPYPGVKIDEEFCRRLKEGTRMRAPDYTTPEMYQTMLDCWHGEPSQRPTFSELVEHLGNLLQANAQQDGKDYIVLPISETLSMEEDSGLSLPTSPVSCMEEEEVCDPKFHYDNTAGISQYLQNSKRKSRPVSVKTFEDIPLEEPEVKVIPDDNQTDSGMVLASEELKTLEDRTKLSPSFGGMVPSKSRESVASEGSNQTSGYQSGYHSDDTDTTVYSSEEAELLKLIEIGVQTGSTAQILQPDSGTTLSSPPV
# Chain of Human KDR (residues 790-1356) (P35968 790-1356): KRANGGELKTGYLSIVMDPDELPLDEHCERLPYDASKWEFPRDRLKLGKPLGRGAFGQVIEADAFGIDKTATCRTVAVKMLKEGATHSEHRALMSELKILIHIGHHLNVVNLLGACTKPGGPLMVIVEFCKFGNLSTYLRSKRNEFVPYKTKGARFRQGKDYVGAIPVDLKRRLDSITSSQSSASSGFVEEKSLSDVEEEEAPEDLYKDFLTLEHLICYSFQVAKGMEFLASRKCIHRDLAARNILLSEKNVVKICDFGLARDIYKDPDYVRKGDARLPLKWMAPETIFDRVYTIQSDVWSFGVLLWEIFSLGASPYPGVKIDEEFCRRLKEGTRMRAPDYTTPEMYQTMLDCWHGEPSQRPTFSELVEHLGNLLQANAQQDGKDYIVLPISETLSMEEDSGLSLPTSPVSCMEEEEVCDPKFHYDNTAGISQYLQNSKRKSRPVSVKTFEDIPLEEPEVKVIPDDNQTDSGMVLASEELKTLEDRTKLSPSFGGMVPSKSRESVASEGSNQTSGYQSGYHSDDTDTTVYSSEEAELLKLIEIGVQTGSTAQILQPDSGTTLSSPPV
# Chain of Met (phospho-Met, HGF-stimulated PC-3 prostate cancer cells) (P08581 25-1390): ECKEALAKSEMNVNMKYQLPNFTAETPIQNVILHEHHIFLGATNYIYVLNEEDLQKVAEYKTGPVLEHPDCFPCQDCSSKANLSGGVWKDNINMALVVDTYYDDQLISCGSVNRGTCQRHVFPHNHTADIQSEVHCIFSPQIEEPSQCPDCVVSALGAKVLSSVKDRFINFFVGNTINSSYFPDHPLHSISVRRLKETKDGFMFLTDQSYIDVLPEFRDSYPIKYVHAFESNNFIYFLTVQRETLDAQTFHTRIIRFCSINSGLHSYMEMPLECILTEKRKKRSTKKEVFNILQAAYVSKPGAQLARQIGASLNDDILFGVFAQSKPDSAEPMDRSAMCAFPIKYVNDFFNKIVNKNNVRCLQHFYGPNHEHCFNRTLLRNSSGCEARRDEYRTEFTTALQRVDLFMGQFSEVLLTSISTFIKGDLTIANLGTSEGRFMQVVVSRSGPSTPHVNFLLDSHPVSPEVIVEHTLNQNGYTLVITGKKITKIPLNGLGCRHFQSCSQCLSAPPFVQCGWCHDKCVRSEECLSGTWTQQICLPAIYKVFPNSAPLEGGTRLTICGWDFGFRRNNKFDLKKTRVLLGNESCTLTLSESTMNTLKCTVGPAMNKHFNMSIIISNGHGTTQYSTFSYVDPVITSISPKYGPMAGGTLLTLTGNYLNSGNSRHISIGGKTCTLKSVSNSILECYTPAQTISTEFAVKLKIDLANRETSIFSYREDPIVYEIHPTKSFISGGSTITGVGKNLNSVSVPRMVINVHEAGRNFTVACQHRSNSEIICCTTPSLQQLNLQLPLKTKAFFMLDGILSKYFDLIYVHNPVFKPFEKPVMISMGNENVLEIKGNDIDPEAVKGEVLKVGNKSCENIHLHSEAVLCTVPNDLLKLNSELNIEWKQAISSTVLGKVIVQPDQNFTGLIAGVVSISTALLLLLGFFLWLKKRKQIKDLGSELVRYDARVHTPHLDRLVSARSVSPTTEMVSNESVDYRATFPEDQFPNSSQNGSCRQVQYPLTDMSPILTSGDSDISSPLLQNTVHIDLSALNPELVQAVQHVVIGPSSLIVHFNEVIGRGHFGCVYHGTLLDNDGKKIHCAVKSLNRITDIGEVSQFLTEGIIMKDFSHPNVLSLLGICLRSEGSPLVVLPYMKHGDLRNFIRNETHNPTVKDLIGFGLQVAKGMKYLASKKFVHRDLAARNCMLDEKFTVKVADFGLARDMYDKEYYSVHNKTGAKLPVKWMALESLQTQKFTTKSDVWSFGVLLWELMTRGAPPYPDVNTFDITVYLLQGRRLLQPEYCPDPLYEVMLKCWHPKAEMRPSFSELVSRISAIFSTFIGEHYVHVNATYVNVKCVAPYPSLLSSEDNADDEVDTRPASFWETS
# Chain of Human MET (residues 956-1390) (P08581 956-1390): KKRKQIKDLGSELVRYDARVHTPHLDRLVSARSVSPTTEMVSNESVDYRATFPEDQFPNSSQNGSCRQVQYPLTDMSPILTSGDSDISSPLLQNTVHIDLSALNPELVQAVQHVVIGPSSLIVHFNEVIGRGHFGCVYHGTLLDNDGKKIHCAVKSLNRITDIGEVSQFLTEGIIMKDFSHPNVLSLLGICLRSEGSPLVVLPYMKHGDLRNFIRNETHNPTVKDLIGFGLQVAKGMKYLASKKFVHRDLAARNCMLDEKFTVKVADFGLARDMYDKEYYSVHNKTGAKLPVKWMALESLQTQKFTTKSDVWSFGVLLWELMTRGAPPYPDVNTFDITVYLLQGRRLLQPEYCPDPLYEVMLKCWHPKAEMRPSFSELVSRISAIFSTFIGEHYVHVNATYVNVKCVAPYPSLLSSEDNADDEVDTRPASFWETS
SMILES,IC50 [1] [nM],IC50 [2] [nM],IC50 [3] [nM],IC50 [4] [nM],IC50 [5] [nM]
"COc1ccc2c(Oc3ccc(NC(=O)c4cnc(C)c(-c5ccc(F)cc5)c4O)cc3F)ccnc2c1 [Compound 105, N-[3-Fluoro-4-(7-methoxyquinolin-4-yl)oxyphenyl]-5-(4-fluorophenyl)-4-hydroxy-6-methylpyridine-3-carboxamide]",100 to 300,< 100,< 100,< 100,< 100
"COc1ccc2c(Oc3ccc(NC(=O)c4cn(C(C)C)c(C)c(-c5ccc(F)cc5)c4=O)cc3F)ccnc2c1 [Compound 106, N-[3-Fluoro-4-(7-methoxyquinolin-4-yl)oxyphenyl]-5-(4-fluorophenyl)-6-methyl-4-oxo-1-propan-2-ylpyridine-3-carboxamide]",> 300,< 100,< 100,< 100,100 to 300
"CCn1cc(C(=O)Nc2ccc(Oc3ccnc4cc(OC)ccc34)c(F)c2)c(=O)c(-c2ccc(F)cc2)c1C [Compound 107, 1-Ethyl-N-[3-fluoro-4-(7-methoxyquinolin-4-yl)oxyphenyl]-5-(4-fluorophenyl)-6-methyl-4-oxopyridine-3-carboxamide]",> 300,< 100,< 100,100 to 300,100 to 300
"COc1cnc2c(Oc3ccc(NC(=O)c4cn(C)c(C)c(-c5ccc(F)cc5)c4=O)cc3)ccnc2c1 [Compound 111, 5-(4-Fluorophenyl)-N-[4-[(7-methoxy-1,5-naphthyridin-4-yl)oxy]phenyl]-1,6-dimethyl-4-oxopyridine-3-carboxamide]",> 300,< 100,< 100,100 to 300,> 300
"COc1cnc2c(Oc3ccc(NC(=O)c4cn(C)cc(-c5ccc(F)cc5)c4=O)cc3F)ccnc2c1 [Compound 112, N-[3-Fluoro-4-[(7-methoxy-1,5-naphthyridin-4-yl)oxy]phenyl]-5-(4-fluorophenyl)-1-methyl-4-oxopyridine-3-carboxamide]",> 300,< 100,< 100,< 100,> 300
"COc1ccc2nccc(Oc3ccc(NC(=O)c4cn(C)c(C)c(-c5ccc(F)cc5)c4=O)cc3F)c2n1 [Compound 113, N-[3-Fluoro-4-[(6-methoxy-1,5-naphthyridin-4-yl)oxy]phenyl]-5-(4-fluorophenyl)-1,6-dimethyl-4-oxopyridine-3-carboxamide]",> 300,< 100,100 to 300,< 100,> 300
"COc1cc2nccc(Oc3ccc(NC(=O)c4cn(C(C)C)c(C)c(-c5ccc(F)cc5)c4=O)cc3)c2nc1OC [Compound 115, N-[4-[(6,7-Dimethoxy-1,5-naphthyridin-4-yl)oxy]phenyl]-5-(4-fluorophenyl)-6-methyl-4-oxo-1-propan-2-ylpyridine-3-carboxamide]",< 100,< 100,< 100,< 100,> 300
"CCn1cc(C(=O)Nc2ccc(Oc3ccnc4cc(OC)c(OC)nc34)c(F)c2)c(=O)c(-c2ccc(F)cc2)c1 [Compound 116, N-[4-[(6,7-Dimethoxy-1,5-naphthyridin-4-yl)oxy]-3-fluorophenyl]-1-ethyl-5-(4-fluorophenyl)-4-oxopyridine-3-carboxamide]",< 100,< 100,< 100,< 100,< 100
"COc1cc2nccc(Oc3ccc(NC(=O)c4cn(CCO)cc(-c5ccc(F)cc5)c4=O)cc3F)c2nc1OC [Compound 117, N-[4-[(6,7-Dimethoxy-1,5-naphthyridin-4-yl)oxy]-3-fluorophenyl]-5-(4-fluorophenyl)-1-(2-hydroxyethyl)-4-oxopyridine-3-carboxamide]",< 100,< 100,< 100,< 100,< 100
"COc1cc2nccc(Oc3ccc(NC(=O)c4cncc(-c5ccc(F)cc5)c4O)cc3)c2nc1OC [Compound 118, N-[4-[(6,7-Dimethoxy-1,5-naphthyridin-4-yl)oxy]phenyl]-5-(4-fluorophenyl)-4-hydroxypyridine-3-carboxamide]",< 100,< 100,< 100,< 100,< 100

# Other lines, results leading:
IC50 [1] [nM],IC50 [2] [nM],IC50 [3] [nM],IC50 [4] [nM],IC50 [5] [nM],SMILES
< 100,< 100,< 100,< 100,< 100,"COc1cc2nccc(Oc3ccc(NC(=O)c4cnc(C)n(-c5ccc(F)cc5)c4=O)cc3F)c2nc1OC [Compound 97, N-[4-[(6,7-Dimethoxy-1,5-naphthyridin-4-yl)oxy]-3-fluorophenyl]-1-(4-fluorophenyl)-2-methyl-6-oxopyrimidine-5-carboxamide]"
< 100,< 100,< 100,< 100,< 100,"COc1cc2nccc(Oc3ccc(NC(=O)c4c(C)ncn(-c5ccc(F)cc5)c4=O)cc3F)c2nc1OC [Compound 98, N-[4-[(6,7-Dimethoxy-1,5-naphthyridin-4-yl)oxy]-3-fluorophenyl]-1-(4-fluorophenyl)-4-methyl-6-oxopyrimidine-5-carboxamide]"
< 100,< 100,< 100,< 100,< 100,"COc1cc2nccc(Oc3ccc(NC(=O)c4cnc(N(C)C)n(-c5ccc(F)cc5)c4=O)cc3F)c2nc1OC [Compound 100, N-[4-[(6,7-Dimethoxy-1,5-naphthyridin-4-yl)oxy]-3-fluorophenyl]-2-(dimethylamino)-1-(4-fluorophenyl)-6-oxopyrimidine-5-carboxamide]"
< 100,< 100,< 100,< 100,< 100,"COc1cc2nccc(Oc3ccc(NC(=O)c4c(C)nc(C)n(-c5ccc(F)cc5)c4=O)cc3F)c2nc1OC [Compound 101, N-[4-[(6,7-Dimethoxy-1,5-naphthyridin-4-yl)oxy]-3-fluorophenyl]-1-(4-fluorophenyl)-2,4-dimethyl-6-oxopyrimidine-5-carboxamide]"
< 100,< 100,< 100,< 100,< 100,"COc1cc2nccc(Oc3ccc(NC(=O)c4c[nH]c(=O)n(-c5ccc(F)cc5)c4=O)cc3F)c2nc1OC [Compound 102, N-[4-[(6,7-Dimethoxy-1,5-naphthyridin-4-yl)oxy]-3-fluorophenyl]-3-(4-fluorophenyl)-2,4-dioxo-1H-pyrimidine-5-carboxamide]"
< 100,< 100,< 100,100 to 300,< 100,"COc1ccc2c(Oc3ccc(NC(=O)c4cnc(C)c(-c5ccc(F)cc5)c4O)cc3)ccnc2c1 [Compound 108, 5-(4-Fluorophenyl)-4-hydroxy-N-[4-(7-methoxyquinolin-4-yl)oxyphenyl]-6-methylpyridine-3-carboxamide]"
< 100,< 100,< 100,< 100,< 100,"COc1cc2nccc(Oc3ccc(NC(=O)c4cnc(C)c(-c5ccc(F)cc5)c4O)cc3F)c2cc1OC [Compound 109, N-[4-(6,7-Dimethoxyquinolin-4-yl)oxy-3-fluorophenyl]-5-(4-fluorophenyl)-4-hydroxy-6-methylpyridine-3-carboxamide]"
